Results reported in patent US8258296B2, “Crystalline antifungal compounds” (Palau Pharma, S.A., priority 2006, dated 2012).

Tests used:
Assay type in all cases: physicochemical
[1] = Solid-form conversion on extended storage; details: storage for 3 months at 40° C. and 75% RH
From the text: (§1) Accordingly, the present subject matter relates to methods of identifying, obtaining, and purifying the various crystalline forms of (1R,2R)-7-chloro-3-[2-(2,4-difluorophenyl)-2-hydroxy-1-methyl-3-(1H-1,2,4-triazol-1-yl)propyl]quinazolin-4(3H)-one. These crystalline forms, namely Forms I-VI, were identified as six distinct crystal forms. Certain physical characteristics of these crystalline forms generated during crystallization studies, are as follows: • Form I: typically obtained by crystallizing the amorphous form using supercritical CO2 crystallization conditions. […] Diethyl ether can then be optionally added. […] Form V can best be characterized as a crystalline phase containing between about 2 and about 7% by weight of ethyl acetate and about 0.5 to about 2.5% by weight of hexane. • Form VI: typically obtained by slurrying (1R,2R)-7-chloro-3-[2-(2,4-difluorophenyl)-2-hydroxy-1-methyl-3-(1H-1,2,4-triazol-1-yl)propyl]quinazolin-4(3H)-one in aqueous ethanol or by slowly cooling a saturated aqueous ethanol solution that was seeded. This form may be obtained when the slurry comprises any other Form of (1R,2R)-7-chloro-3-[2-(2,4-difluorophenyl)-2-hydroxy-1-methyl-3-(1H-1,2,4-triazol-1-yl)propyl]quinazolin-4(3H)-one, such as, for example, the amorphous form, Form III, Form IV, Form V, or combinations thereof. […]

[2] = Slurry experiment to estimate rate of conversion of Form III to Form VI (XRPD); details: slurry at 45° C. in ethanol-water (1:9), seeded with Form VI, XRPD analysis
Procedure: Form VI may be prepared by slurrying albaconazole in aqueous ethanol or by slowly cooling a saturated aqueous ethanol solution that was seeded. In order to estimate rate of conversion, a slurry experiment of Form III was setup at 45° C. in ethanol-water (1:9), seeded with Form VI and aliquots periodically removed. Solids from the first aliquot removed after ˜3 hours were composed of only Form VI by XRPD analysis. A slow cool method was also attempted by cooling a saturated solution of albaconazole in aqueous ethanol that was seeded. Form VI solids were isolated in a 41% yield.

[3] = Storage stability, detection of degradation products
From the text: as §1

[4] = Hygroscopicity characterisation

In the case of `C[C@@H](n1cnc2cc(Cl)ccc2c1=O)[C@](O)(Cn1cncn1)c1ccc(F)cc1F` [Form III, (1R,2R)-7-chloro-3-[2-(2,4-difluorophenyl)-2-hydroxy-1-methyl-3-(1H-1,2,4-triazol-1-yl)propyl]quinazolin-4(3H)-one], the “conversion of the original form to Form IV on storage” value [1] is reported as “some but not all of the original form converts to Form IV”, the “time to complete conversion of slurry to Form VI” value [2] is reported as ~3 h and the “degradation products detected after storage” value ([3]; 6 months of storage at 25° C./60% RH) is reported as “No degradation products”. The “degradation products detected after storage” value ([3]; 6 months of storage at 30° C./65% RH) was “No degradation products”.
For `C[C@@H](n1cnc2cc(Cl)ccc2c1=O)[C@](O)(Cn1cncn1)c1ccc(F)cc1F` [Form VI, (1R,2R)-7-chloro-3-[2-(2,4-difluorophenyl)-2-hydroxy-1-methyl-3-(1H-1,2,4-triazol-1-yl)propyl]quinazolin-4(3H)-one], the hygroscopicity [4] was “non-hygroscopic”.
